Assay [1] concerns primary human mesenchymal stem cells (hMSCs). Briefly: Tenocyte differentiation assay in hMSCs (SCXA staining). Conditions: given for EC50 of >100 μM; not defined in the method. Type of assay: cell-based. The source says: Representative compounds were screened using primary human mesenchymal stem cells (hMSCs) to determine their ability to induce tenocyte differentiation (process by which tendon is developed).
Human Mesenchymal Stem Cell Culture: Primary human mesenchymal stem cells (hMSCs) were purchased from Lonza (Walkersville, Md.) and expanded in Mesenchymal Stem Cell Growth Media (Lonza). Cells between passage 3 and 6 were used for the experiments.
Cells were fixed using 4% formaldehyde (Electron Microscopy Sciences), and stained with anti-Sclerasis (anti-SCXA) antibodies (Abgent, San Diego, Calif.) [Webb S., et. al., Retinoic acid receptor signaling preserves tendon stem cell characteristics and prevents spontaneous differentiation in vitro, Stem Cell Research & Therapy 2016, 7:45] overnight at 4° C. […] Number of cells positive for SCXA in each well was quantified using the CellInsight CX5. Data was normalized to the average of 12 DMSO treated wells on the same plate using Dotmatics Studies module. The normalized averages (fold change over DMSO) of 3 replicate wells for each compound concentration were calculated. Due to solubility limitations of some of the compounds, values for higher doses were manually corrected and curve fitting and EC50 determinations were performed using Dotmatics Studies.

For assay [2], the system named is Wnt activity (Sp5-Luc reporter, TCF/LEF binding sites) in SW480 colon carcinoma cells. Briefly: Screening assay for Wnt activity: Sp5-Luc reporter gene assay in SW480 cells. Format: cell-based, human. The following applies: 36 to 48 hours. The source says: The screening assay for Wnt activity is described as follows. Reporter cell lines can be generated by stably transducing cancer cell lines (e.g., colon cancer) or primary cells (e.g., IEC-6 intestinal cells) with a lentiviral construct that includes a Wnt-responsive promoter driving expression of the firefly luciferase gene.
SW480 colon carcinoma cells were transduced with a lentiviral vector expressing luciferase with a human Sp5 promoter consisting of a sequence of eight TCF/LEF binding sites. SW480 cells stably expressing the Sp5-Luc reporter gene and a hygromycin resistance gene were selected by treatment with 150 μg/mL of hygromycin for 7 days. These stably transduced SW480 cells were expanded in cell culture and used for all further screening activities. […] For Sp5-Luc reporter gene assays, the cells were plated at 4,000 cells/well in 384-well plates with a DMEM medium containing 1% fetal bovine serum, and 1% Penicillin-Streptomycin and incubated for 36 to 48 hours at 37° C. and 5% CO2. Following incubation, 15 μl of BriteLite Plus luminescence reagent (Perkin Elmer) was added to each well of the 384-well assay plates. The plates were placed on an orbital shaker for 2 min and then luminescence was quantified using the Envision (Perkin Elmer) plate reader. Readings were normalized to DMSO only treated cells, and normalized activities were utilized for EC50 calculations using the dose-response log (inhibitor) vs. response variable slope (four parameters) nonlinear regression feature available in GraphPad Prism 5.0 (or Dotmatics).
A general note: A reporter such as luciferase makes a cellular process visible.

The subject of assay [3] is SW480 colon carcinoma cells. Kind of assay: Cell viability assay (CellTiter-Glo) in SW480 cells. Conditions: four days. Type of assay: cell-based, human. As to the method: Representative compounds were screened using the assay procedure to assess the effect on cell viability as described below.
SW480 colon carcinoma cells were transduced with a lentiviral vector expressing luciferase with a human Sp5 promoter consisting of a sequence of eight TCF/LEF binding sites. SW480 cells stably expressing the Sp5-Luc reporter gene and a hygromycin resistance gene were selected by treatment with 150 μg/mL of hygromycin for 7 days. These stably transduced SW480 cells were expanded in cell culture and used for all further screening activities.
For the Cell Viability Assays, the cells were plated at 2,000 cells/well in 384-well plates with a DMEM medium containing 1% fetal bovine serum, and 1% Penicillin-Streptomycin and incubated for […] at 37° C. and 5% CO2. Eight replicates of DMSO-treated cells served as controls and cells treated with compound were performed in duplicate.
After incubation, 10 μL of CellTiter-Glo (Promega) was added to each well allowed to incubate for approximately 12 minutes. This reagent “results in cell lysis and generation of a luminescent signal proportional to the amount of ATP present. The amount of ATP is directly proportional to the number of cells present in culture, in agreement with previous reports. The CellTiter-Glo® Assay generates a “glow-type” luminescent signal, produced by the luciferase reaction (Promega.com)”.
(In general: In ATP-based viability assays light output follows the ATP content of the culture.)

Assay [4] has as its system primary human fibroblasts derived from IPF patients (LL29 cells) treated with TGF-β1. Briefly: Inhibition of the fibrotic process: αSMA staining in TGF-β1 treated LL29 fibroblasts. Format: cell-based. The following applies: % cells positive for αSMA, TGF-β1 20 ng/mL, 4 days. As to the method: Representative compounds were screened using primary human fibroblasts (derived from IPF patients) treated with TGF-β1 to determine their ability to inhibit the fibrotic process.
LL29 cells were plated at 1,500 cells/well in 70 μL/well F12 medium supplemented with 1% Fetal Bovine Serum. […] Wells treated with TGF-β1 and containing DMSO were used as positive control, and cells with only DMSO were negative control. […] Following incubation for 4 days, SYTOX green nucleic acid stain (Life Technologies [Thermo Fisher Scientific]) was added to the wells at a final concentration of 1 μM and incubated at room temperature for 30 min.

The subject of a further assay is IL-6. Briefly: IL-6 inhibition in LPS-stimulated human PBMCs (HTRF). Type of assay: cell-based. Conditions: PBMC; for EC50: IL-6, huPBMCs, LPS 50 ng/mL, 22 hours. As to the method:
Human Peripheral Blood Mononuclear Cells: Fresh Normal PB MNC (Catalog #PB001, AllCells, Alameda, Calif.) were shipped overnight at 4° C. and resuspended in Roswell Park Memorial Institute (RPMI) 1640 Medium, with GlutaMAX Supplement (Catalog #61870127, ThermoFisher Scientific, Waltham, Mass.) supplemented with 1% Penicillin-Streptomycin (Catalog #15140163, ThermoFisher Scientific, Waltham, Mass.) and 1% fetal bovine serum (FBS) (Catalog #16140089, ThermoFisher Scientific, Waltham, Mass.) assay media.
Compound Screening: Fresh normal human peripheral blood mononuclear cells (huPBMCs) were resuspended in 1% FBS-RPMI assay media with 1% Penicillin-Streptomycin 1% to a cell concentration of 1×10e6 cells/mL. […] 50 ng/mL of Lipopolysaccharides from Escherichia coli 0111:B4 (Catalog #L5293-2ML, Sigma-Aldrich, St. Louis, Mo.) was added after 2 hours and cells were incubated for another 22 hours at 37° C.-5% CO2. After 22 hour incubation, a mixture of anti-IL6 XL665 and anti-IL-6 Cryptate diluted in reconstitution buffer (Catalog #62IL6PEC, Cisbio Inc., Bedford, Mass.) was added to each well. Following incubation for 3 hours at room temperature, Homogeneous Time-Resolved Fluorescence (HTRF) was measured using the Envision (Perkin Elmer, Shelton, Conn.) at 665 nm and […]. The ratio of fluorescence at 665 nm to 620 nm was used as a readout for IL-6 quantification. All samples were processed in duplicate. Readings were normalized to DMSO treated cells and normalized activities were utilized for EC50 calculations. EC50 was determined using software generated by Dotmatics Limited (Windhill Bishops Stortford Herts, UK) using the Levenberg-Marquardt 4 parameter fitting procedure with finite different gradients.
(Time-resolved FRET reads energy transfer from a long-lived donor to a nearby acceptor.)

The values below come from patent US11713320B2, “5-heteroaryl substituted indazole-3-carboxamides and preparation and use thereof” (BioSplice Therapeutics, Inc., priority 2018, dated 2023).

As usually defined, the EC50 is the concentration giving half of the maximal effect. A higher EC50 goes with lower potency in that assay. In general, inhibition refers to how much of the control response was suppressed.

With `Cn1cc(-c2cc3c(C(=O)Nc4cccc(OCCN5CCCC5)c4)n[nH]c3cc2F)cn1` [Compound 154, 6-Fluoro-5-(1-methyl-1H-pyrazol-4-yl)-N-(3-(2-(pyrrolidin-1-yl)ethoxy)phenyl)-1H-indazole-3-carboxamide], the “percent value in parentheses beside EC50 >100” value (“percent value” below) in assay [1] is “(21.0%)”. Consider `Cn1cc(-c2cc(F)c3[nH]nc(C(=O)NC4CCN(CC(F)F)CC4)c3c2)cn1` [Compound 101, N-(1-(2,2-Difluoroethyl)piperidin-4-yl)-7-fluoro-5-(1-methyl-1H-pyrazol-4-yl)-1H-indazole-3-carboxamide], for which the “percent value” value in assay [1] is listed as “(33.0%)”.

`C[C@H]1C[C@H](NC(=O)c2n[nH]c3ccc(-c4cnn(C)c4)cc23)CCN1CC(C)(C)F` [Compound 44, N-((2S,4R)-1-(2-fluoro-2-methylpropyl)-2-methylpiperidin-4-yl)-5-(1-methyl-1H-pyrazol-4-yl)-1H-indazole-3-carboxamide]: the EC50 is 279 nM in assay [2] (Homo sapiens); 1520 nM in assay [3] (Homo sapiens, 96 h); 199 nM in assay [4] (Homo sapiens, Fibroblast, 96 h); 1030 nM in the assay on IL-6. In the case of “5-(1,2-Dimethyl-1H-imidazol-5-yl)-N-(2-methylthiazol-5-yl)-1H-indazole-3-carboxamide [Compound 139]”, the “percent value” value in assay [1] is “(21.2%)”. Turning to `CN1CCC(Oc2ccc(NC(=O)c3n[nH]c4c(F)cc(-c5cnn(C)c5)cc34)cn2)CC1` [Compound 129, 7-Fluoro-5-(1-methyl-1H-pyrazol-4-yl)-N-(6-((1-methylpiperidin-4-yl)oxy)pyridin-3-yl)-1H-indazole-3-carboxamide], in assay [1], the “percent value” value is listed as “(13.0%)”. For the compound `Cc1ncc(-c2ccc3[nH]nc(C(=O)Nc4ccc(OC5CCN(C)CC5)cc4)c3c2)s1` [Compound 82, N-(4-((1-Methylpiperidin-4-yl)oxy)phenyl)-5-(2-methylthiazol-5-yl)-1H-indazole-3-carboxamide], the “percent value” value in assay [1] is listed as “(2.9%)”. Take `Cc1ncc(-c2ccc3[nH]nc(C(=O)NC4CCN(CC(C)(C)F)CC4)c3c2)n1C` [Compound 42, 5-(1,2-Dimethyl-1H-imidazol-5-yl)-N-(1-(2-fluoro-2-methylpropyl)piperidin-4-yl)-1H-indazole-3-carboxamide]: the EC50 in assay [2] (Homo sapiens) was 507 nM; in assay [3] (Homo sapiens, 96 h), above 10000 nM; in assay [4] (Homo sapiens, Fibroblast, 96 h) it was 1360 nM; in the assay on IL-6 it was above 10000 nM. In addition, the inhibition at 10 µM in the assay with IL-6 (read-out: percent inhibition at 10 μM) came out at 10.4%. For `CN1CCC(Oc2cccc(NC(=O)c3n[nH]c4cc(F)c(-c5cnn(C)c5)cc34)c2)CC1` [Compound 151, 6-Fluoro-5-(1-methyl-1H-pyrazol-4-yl)-N-(3-((1-methylpiperidin-4-yl)oxy)phenyl)-1H-indazole-3-carboxamide], in assay [1], the “percent value” value was “(3.5%)”.

With `CC(C)(F)CN1CCC(n2cc(-c3ccc4[nH]nc(C(=O)Nc5ccc(OC(F)F)cc5)c4c3)cn2)CC1` [Compound 61, N-(4-(difluoromethoxy)phenyl)-5-(1-(1-(2-fluoro-2-methylpropyl)piperidin-4-yl)-1H-pyrazol-4-yl)-1H-indazole-3-carboxamide], the EC50 is above 10000 nM in assay [2], above 10000 nM in assay [3] and 9 nM in assay [4]. On to `CN1CCN(c2cccc(NC(=O)c3n[nH]c4cc(F)c(-c5cnn(C)c5)cc34)c2)CC1` [Compound 149, 6-Fluoro-5-(1-methyl-1H-pyrazol-4-yl)-N-(3-(4-methylpiperazin-1-yl)phenyl)-1H-indazole-3-carboxamide], for which the “percent value” value in assay [1] is reported as “(36.0%)”. In the case of `Cc1cc(NC(=O)c2n[nH]c3ccc(-c4cnn(C5CCN(C)CC5)c4)cc23)sn1` [Compound 143, N-(3-Methylisothiazol-5-yl)-5-(1-(1-methylpiperidin-4-yl)-1H-pyrazol-4-yl)-1H-indazole-3-carboxamide], in assay [1], the “percent value” value is on record as “(23.0%)”. With `O=C(Nc1ccc(F)cc1)c1n[nH]c2ccc(-c3cnc4n3CCNC4)cc12` [Compound 52, N-(4-Fluorophenyl)-5-(5,6,7,8-tetrahydroimidazo[1,2-a]pyrazin-3-yl)-1H-indazole-3-carboxamide], a half-maximal response in assay [4] (Homo sapiens, Fibroblast, 96 h) (EC50) required 540 nM.
